Measurements published in ChEMBL document CHEMBL3885861, “Open TG-GATES”.

Organism: Rattus norvegicus
Assay: Open TG-GATES - Regimen: Daily Repeat
Type: toxicity, organism-based, Sprague-Dawley
Parameters: regimen Daily Repeat, gender Male, age 6 weeks
Conditions: in vivo, po, route gavage; for APTT / Bas / Eos / Fbg / Hb / Ht / Lym / MCHC / MCV / Mono / Neu / PT / Plat / RBC / Ret / WBC: tissue Blood; for KIDNEY_L / KIDNEY_R / KIDNEY_TOTAL: tissue Kidney; for LIVER: tissue Liver; for ALP / ALT / AST / CRE / DBIL / GLC / IP / K / LDH / Na / PL / RALB / TBIL / TC / TG / TP / gamma-GTP: tissue Plasma
[1] = 0 mg/kg, 72 h, dose level Control, time 3 day
[2] = 0 mg/kg, […], dose level Control, time 7 day
[3] = 0 mg/kg, […], dose level Control, time 14 day
[4] = 0 mg/kg, […], dose level Control, time 28 day
[5] = 60 mg/kg, 72 h, dose level Low, time 3 day
[6] = 60 mg/kg, […], dose level Low, time 7 day
[7] = 60 mg/kg, […], dose level Low, time 14 day
[8] = 60 mg/kg, […], dose level Low, time 28 day

## O=C1NC(=O)C(c2ccccc2)(c2ccccc2)N1 [PHENYTOIN]
[1]
  TERMINAL_BW: 217.7 g
  APTT: 21.2 s
  Bas: 0%
  Eos: 0.8%
  Fbg: 301.8 mg/dL
  Hb: 13.3 g/dL
  Ht: 39%
  Lym: 81.2%
  MCHC: 34.1%
  MCV: 64.2 fL
  Mono: 2.4%
  Neu: 15.2%
  PT: 16 s
  Plat: 126.3 x10_4/uL
  RBC: 608.6 x10_4/ul
  Ret: 7.4%
  WBC: 73.8 x10_2/uL
  KIDNEY_L: 1 g
  KIDNEY_R: 1 g
  KIDNEY_TOTAL: 1.9 g
  LIVER: 10.1 g
  ALP: 1688.4 IU/L
  ALT: 46.8 IU/L
  AST: 71 IU/L
  CRE: 0.1 mg/dL
  DBIL: 0 mg/dL
  GLC: 192.6 mg/dL
  IP: 7.6 mg/dL
  K: 4.1 meq/L
  LDH: 178.6 IU/L
  Na: 143 meq/L
  PL: 141.6 mg/dL
  RALB: 3.1 g/dL
  TBIL: 0.018 mg/dL
  TC: 73.4 mg/dL
  TG: 84 mg/dL
  TP: 5.7 g/dL
  gamma-GTP: 1 IU/L
[2]
  TERMINAL_BW: 247 g
  APTT: 20.8 s
  Bas: 0%
  Eos: 0.4%
  Fbg: 300.4 mg/dL
  Hb: 13.4 g/dL
  Ht: 39.2%
  Lym: 82.2%
  MCHC: 34.2%
  MCV: 62.4 fL
  Mono: 2.4%
  Neu: 13.6%
  PT: 16 s
  Plat: 125.6 x10_4/uL
  RBC: 628 x10_4/ul
  Ret: 5.6%
  WBC: 113.7 x10_2/uL
  KIDNEY_L: 1 g
  KIDNEY_R: 1 g
  KIDNEY_TOTAL: 2.1 g
  LIVER: 11.2 g
  ALP: 1443 IU/L
  ALT: 34.8 IU/L
  AST: 65 IU/L
  CRE: 0.2 mg/dL
  DBIL: 0.004 mg/dL
  GLC: 197.2 mg/dL
  IP: 7.7 mg/dL
  K: 4.6 meq/L
  LDH: 197 IU/L
  Na: 141.6 meq/L
  PL: 140 mg/dL
  RALB: 2.9 g/dL
  TBIL: 0.024 mg/dL
  TC: 67.4 mg/dL
  TG: 131.4 mg/dL
  TP: 5.6 g/dL
  gamma-GTP: 0.8 IU/L
[3]
  TERMINAL_BW: 296.2 g
  APTT: 21.7 s
  Bas: 0%
  Eos: 1%
  Fbg: 290.6 mg/dL
  Hb: 14.1 g/dL
  Ht: 40.9%
  Lym: 81.4%
  MCHC: 34.4%
  MCV: 59.2 fL
  Mono: 2.2%
  Neu: 14.8%
  PT: 16.5 s
  Plat: 124.2 x10_4/uL
  RBC: 690 x10_4/ul
  Ret: 4.6%
  WBC: 135.4 x10_2/uL
  KIDNEY_L: 1.2 g
  KIDNEY_R: 1.2 g
  KIDNEY_TOTAL: 2.4 g
  LIVER: 12.7 g
  ALP: 1493.2 IU/L
  ALT: 40 IU/L
  AST: 63 IU/L
  CRE: 0.2 mg/dL
  DBIL: 0 mg/dL
  GLC: 199.4 mg/dL
  IP: 7.2 mg/dL
  K: 4.3 meq/L
  LDH: 136.4 IU/L
  Na: 141.4 meq/L
  PL: 147.4 mg/dL
  RALB: 3 g/dL
  TBIL: 0.012 mg/dL
  TC: 68.4 mg/dL
  TG: 154 mg/dL
  TP: 5.6 g/dL
  gamma-GTP: 1.8 IU/L
[4]
  TERMINAL_BW: 378.5 g
  APTT: 23.3 s
  Bas: 0%
  Eos: 1%
  Fbg: 307.4 mg/dL
  Hb: 15.3 g/dL
  Ht: 42.8%
  Lym: 83.4%
  MCHC: 35.7%
  MCV: 58.7 fL
  Mono: 1.6%
  Neu: 13.4%
  PT: 15.8 s
  Plat: 116.4 x10_4/uL
  RBC: 728.8 x10_4/ul
  Ret: 3.1%
  WBC: 147.1 x10_2/uL
  KIDNEY_L: 1.3 g
  KIDNEY_R: 1.3 g
  KIDNEY_TOTAL: 2.6 g
  LIVER: 15.6 g
  ALP: 1238 IU/L
  ALT: 38.8 IU/L
  AST: 61.8 IU/L
  CRE: 0.3 mg/dL
  DBIL: 0.004 mg/dL
  GLC: 189.6 mg/dL
  IP: 6.3 mg/dL
  K: 3.9 meq/L
  LDH: 151.4 IU/L
  Na: 142.4 meq/L
  PL: 139.6 mg/dL
  RALB: 3 g/dL
  TBIL: 0.022 mg/dL
  TC: 67.8 mg/dL
  TG: 143.4 mg/dL
  TP: 6.1 g/dL
  gamma-GTP: 1.2 IU/L
[5]
  TERMINAL_BW: 222.2 g
  APTT: 21.7 s
  Bas: 0%
  Eos: 0.6%
  Fbg: 311.4 mg/dL
  Hb: 13 g/dL
  Ht: 38.1%
  Lym: 81.6%
  MCHC: 34.1%
  MCV: 65.7 fL
  Mono: 1.4%
  Neu: 15.2%
  PT: 15.7 s
  Plat: 130.4 x10_4/uL
  RBC: 581.8 x10_4/ul
  Ret: 7.7%
  WBC: 82.9 x10_2/uL
  KIDNEY_L: 1 g
  KIDNEY_R: 1 g
  KIDNEY_TOTAL: 2 g
  LIVER: 10.7 g
  ALP: 1528 IU/L
  ALT: 38 IU/L
  AST: 65.8 IU/L
  CRE: 0.1 mg/dL
  DBIL: 0 mg/dL
  GLC: 185.4 mg/dL
  IP: 7.5 mg/dL
  K: 4.3 meq/L
  LDH: 213.4 IU/L
  Na: 143 meq/L
  PL: 156 mg/dL
  RALB: 3.1 g/dL
  TBIL: 0.01 mg/dL
  TC: 81.4 mg/dL
  TG: 104.2 mg/dL
  TP: 5.8 g/dL
  gamma-GTP: 1.4 IU/L
[6]
  TERMINAL_BW: 250.5 g
  APTT: 22.8 s
  Bas: 0%
  Eos: 1%
  Fbg: 314.8 mg/dL
  Hb: 13.7 g/dL
  Ht: 40.7%
  Lym: 80%
  MCHC: 33.6%
  MCV: 62.6 fL
  Mono: 2.6%
  Neu: 15.8%
  PT: 15.6 s
  Plat: 124.8 x10_4/uL
  RBC: 650.8 x10_4/ul
  Ret: 6.1%
  WBC: 113.1 x10_2/uL
  KIDNEY_L: 1.1 g
  KIDNEY_R: 1.1 g
  KIDNEY_TOTAL: 2.1 g
  LIVER: 11.8 g
  ALP: 1555.8 IU/L
  ALT: 40.4 IU/L
  AST: 64.8 IU/L
  CRE: 0.2 mg/dL
  DBIL: 0 mg/dL
  GLC: 184.6 mg/dL
  IP: 7 mg/dL
  K: 4.4 meq/L
  LDH: 169.2 IU/L
  Na: 141.8 meq/L
  PL: 148.2 mg/dL
  RALB: 3 g/dL
  TBIL: 0.034 mg/dL
  TC: 73.6 mg/dL
  TG: 108 mg/dL
  TP: 5.6 g/dL
  gamma-GTP: 1.2 IU/L
[7]
  TERMINAL_BW: 308.9 g
  APTT: 22.6 s
  Bas: 0%
  Eos: 0.8%
  Fbg: 277.4 mg/dL
  Hb: 13.9 g/dL
  Ht: 40.8%
  Lym: 80.6%
  MCHC: 34.2%
  MCV: 60.8 fL
  Mono: 2.2%
  Neu: 15.6%
  PT: 16.2 s
  Plat: 104.4 x10_4/uL
  RBC: 670.4 x10_4/ul
  Ret: 5%
  WBC: 136.7 x10_2/uL
  KIDNEY_L: 1.3 g
  KIDNEY_R: 1.3 g
  KIDNEY_TOTAL: 2.6 g
  LIVER: 14.1 g
  ALP: 1361 IU/L
  ALT: 40.4 IU/L
  AST: 63.2 IU/L
  CRE: 0.2 mg/dL
  DBIL: 0.008 mg/dL
  GLC: 186.8 mg/dL
  IP: 7.6 mg/dL
  K: 4.2 meq/L
  LDH: 176.6 IU/L
  Na: 142.6 meq/L
  PL: 152.4 mg/dL
  RALB: 3.1 g/dL
  TBIL: 0.012 mg/dL
  TC: 74.2 mg/dL
  TG: 129.6 mg/dL
  TP: 5.5 g/dL
  gamma-GTP: 1.2 IU/L
[8]
  TERMINAL_BW: 366.2 g
  APTT: 22.8 s
  Bas: 0%
  Eos: 0.8%
  Fbg: 298.8 mg/dL
  Hb: 15.5 g/dL
  Ht: 43.8%
  Lym: 86.8%
  MCHC: 35.5%
  MCV: 57.3 fL
  Mono: 1.8%
  Neu: 10%
  PT: 16 s
  Plat: 107 x10_4/uL
  RBC: 764.6 x10_4/ul
  Ret: 2.6%
  WBC: 141.5 x10_2/uL
  KIDNEY_L: 1.3 g
  KIDNEY_R: 1.3 g
  KIDNEY_TOTAL: 2.6 g
  LIVER: 14.2 g
  ALP: 1279.2 IU/L
  ALT: 41 IU/L
  AST: 64.4 IU/L
  CRE: 0.2 mg/dL
  DBIL: 0.004 mg/dL
  GLC: 181.2 mg/dL
  IP: 5.8 mg/dL
  K: 3.9 meq/L
  LDH: 231.2 IU/L
  Na: 143.4 meq/L
  PL: 131.6 mg/dL
  RALB: 3.1 g/dL
  TBIL: 0.028 mg/dL
  TC: 66.6 mg/dL
  TG: 107.4 mg/dL
  TP: 6.1 g/dL
  gamma-GTP: 1.4 IU/L
